Experimental data taken from ChEMBL document CHEMBL4507288 (2021).

How the values were obtained:
[1] = molecular target: 5'-AMP-activated protein kinase catalytic subunit alpha-1 (Homo sapiens) (UniProt Q13131); conditions: Compound concentration 1000.0 nM
[2] = molecular target: Serine/threonine-protein kinase PLK2 (Homo sapiens) (UniProt Q9NYY3); conditions: Compound concentration 1000.0 nM
[3] = molecular target: Mitogen-activated protein kinase kinase kinase 1 (Homo sapiens) (UniProt Q13233); conditions: Compound concentration 1000.0 nM
[4] = test system: Serine/threonine-protein kinase B-raf (Homo sapiens), P15056 [V600E]; conditions: Compound concentration 1000.0 nM
[5] = molecular target: Myosin light chain kinase, smooth muscle (Homo sapiens) (UniProt Q15746); conditions: Compound concentration 1000.0 nM
[6] = molecular target: Angiopoietin-1 receptor (Homo sapiens) (UniProt Q02763); conditions: Compound concentration 1000.0 nM
[7] = molecular target: Tyrosine-protein kinase receptor Tie-1 (Homo sapiens) (UniProt P35590); conditions: Compound concentration 1000.0 nM
[8] = molecular target: Ribosomal protein S6 kinase alpha-5 (Homo sapiens) (UniProt O75582); conditions: Compound concentration 1000.0 nM
Sequence of Ribosomal protein S6 kinase alpha-5 (Homo sapiens) (O75582 whole entry, looked up): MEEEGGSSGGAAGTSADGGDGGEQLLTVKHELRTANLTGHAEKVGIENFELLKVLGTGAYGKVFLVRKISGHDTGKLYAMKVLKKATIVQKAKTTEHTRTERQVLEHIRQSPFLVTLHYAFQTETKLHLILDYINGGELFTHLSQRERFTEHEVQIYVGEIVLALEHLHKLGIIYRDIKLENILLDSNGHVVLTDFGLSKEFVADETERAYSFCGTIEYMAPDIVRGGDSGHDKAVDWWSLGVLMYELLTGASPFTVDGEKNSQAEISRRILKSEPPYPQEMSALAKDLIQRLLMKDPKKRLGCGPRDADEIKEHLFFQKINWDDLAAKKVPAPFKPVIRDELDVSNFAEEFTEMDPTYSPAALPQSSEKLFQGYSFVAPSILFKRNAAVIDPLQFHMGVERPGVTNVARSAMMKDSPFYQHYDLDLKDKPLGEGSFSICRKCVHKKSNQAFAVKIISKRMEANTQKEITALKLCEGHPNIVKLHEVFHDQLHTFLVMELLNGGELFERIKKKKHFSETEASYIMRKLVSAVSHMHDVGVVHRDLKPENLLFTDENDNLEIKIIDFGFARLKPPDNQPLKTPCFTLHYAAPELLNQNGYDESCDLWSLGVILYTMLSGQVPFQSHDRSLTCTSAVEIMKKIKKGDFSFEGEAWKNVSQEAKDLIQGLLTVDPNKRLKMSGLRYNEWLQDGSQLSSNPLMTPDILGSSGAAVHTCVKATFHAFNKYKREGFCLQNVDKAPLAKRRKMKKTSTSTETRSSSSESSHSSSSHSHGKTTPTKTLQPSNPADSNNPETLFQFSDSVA

[9] = molecular target: Cyclin-dependent kinase-like 3 (Homo sapiens) (UniProt Q8IVW4); conditions: Compound concentration 1000.0 nM
[10] = molecular target: SRSF protein kinase 1 (Homo sapiens) (UniProt Q96SB4); conditions: Compound concentration 1000.0 nM
Sequence of SRSF protein kinase 1 (Homo sapiens) (Q96SB4 whole entry): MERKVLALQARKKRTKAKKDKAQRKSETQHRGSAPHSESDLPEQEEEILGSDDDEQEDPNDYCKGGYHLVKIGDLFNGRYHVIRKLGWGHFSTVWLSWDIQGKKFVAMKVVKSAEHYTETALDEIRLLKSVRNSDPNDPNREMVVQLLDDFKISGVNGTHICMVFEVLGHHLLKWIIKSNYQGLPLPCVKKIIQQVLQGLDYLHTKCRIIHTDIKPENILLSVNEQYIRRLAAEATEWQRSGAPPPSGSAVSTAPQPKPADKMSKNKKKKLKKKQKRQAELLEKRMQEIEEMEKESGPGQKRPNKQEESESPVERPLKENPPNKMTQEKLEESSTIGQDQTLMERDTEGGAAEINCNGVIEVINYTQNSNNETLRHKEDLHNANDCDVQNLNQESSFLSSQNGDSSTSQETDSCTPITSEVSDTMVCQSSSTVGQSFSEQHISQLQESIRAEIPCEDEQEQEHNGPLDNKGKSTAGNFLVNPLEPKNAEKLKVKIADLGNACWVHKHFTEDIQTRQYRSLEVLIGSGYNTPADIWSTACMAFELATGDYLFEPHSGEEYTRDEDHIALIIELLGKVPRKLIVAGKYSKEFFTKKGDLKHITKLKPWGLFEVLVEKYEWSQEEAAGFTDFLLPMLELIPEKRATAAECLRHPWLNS

[11] = molecular target: Serine/threonine-protein kinase Nek9 (Homo sapiens) (UniProt Q8TD19); conditions: Compound concentration 1000.0 nM
[12] = molecular target: Serine/threonine-protein kinase SBK1 (Homo sapiens) (UniProt Q52WX2); conditions: Compound concentration 1000.0 nM
[13] = molecular target: Tyrosine-protein kinase HCK (Homo sapiens) (UniProt P08631); conditions: Compound concentration 1000.0 nM
[14] = molecular target: Casein kinase I isoform gamma-3 (Homo sapiens) (UniProt Q9Y6M4); conditions: Compound concentration 1000.0 nM
[15] = molecular target: Ribosomal protein S6 kinase alpha-1 (Homo sapiens) (UniProt Q15418); conditions: Compound concentration 1000.0 nM
Sequence of Ribosomal protein S6 kinase alpha-1 (Homo sapiens) (Q15418 whole entry): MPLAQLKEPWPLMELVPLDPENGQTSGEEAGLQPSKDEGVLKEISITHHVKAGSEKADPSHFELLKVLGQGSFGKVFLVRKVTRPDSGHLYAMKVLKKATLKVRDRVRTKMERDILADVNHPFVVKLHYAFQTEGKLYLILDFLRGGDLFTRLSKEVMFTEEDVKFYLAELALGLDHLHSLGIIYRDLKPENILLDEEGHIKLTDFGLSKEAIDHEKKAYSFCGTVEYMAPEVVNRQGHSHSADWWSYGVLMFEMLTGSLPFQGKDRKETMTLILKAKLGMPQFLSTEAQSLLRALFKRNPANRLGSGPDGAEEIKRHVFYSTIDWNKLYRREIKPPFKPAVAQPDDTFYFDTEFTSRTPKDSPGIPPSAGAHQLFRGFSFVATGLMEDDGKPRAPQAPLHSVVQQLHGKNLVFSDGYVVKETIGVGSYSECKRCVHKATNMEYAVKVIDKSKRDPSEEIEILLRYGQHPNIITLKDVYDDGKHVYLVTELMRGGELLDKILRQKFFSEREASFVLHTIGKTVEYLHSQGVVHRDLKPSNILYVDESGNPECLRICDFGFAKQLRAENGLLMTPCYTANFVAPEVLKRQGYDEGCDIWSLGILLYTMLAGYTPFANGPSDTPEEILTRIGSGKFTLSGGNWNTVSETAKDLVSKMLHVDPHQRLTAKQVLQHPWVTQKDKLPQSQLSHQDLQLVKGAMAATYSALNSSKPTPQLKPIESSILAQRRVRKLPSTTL

[16] = molecular target: Ephrin type-A receptor 5 (Homo sapiens) (UniProt P54756); conditions: Compound concentration 1000.0 nM
[17] = molecular target: Hepatocyte growth factor receptor (Homo sapiens) (UniProt P08581); conditions: Compound concentration 1000.0 nM
[18] = molecular target: Serine/threonine-protein kinase STK11 (Homo sapiens) (UniProt Q15831); conditions: Compound concentration 1000.0 nM
[19] = molecular target: Ribosomal protein S6 kinase alpha-2 (Homo sapiens) (UniProt Q15349); conditions: Compound concentration 1000.0 nM
[20] = molecular target: Mitogen-activated protein kinase 15 (Homo sapiens) (UniProt Q8TD08); conditions: Compound concentration 1000.0 nM
Sequence of Mitogen-activated protein kinase 15 (Homo sapiens) (Q8TD08 whole entry): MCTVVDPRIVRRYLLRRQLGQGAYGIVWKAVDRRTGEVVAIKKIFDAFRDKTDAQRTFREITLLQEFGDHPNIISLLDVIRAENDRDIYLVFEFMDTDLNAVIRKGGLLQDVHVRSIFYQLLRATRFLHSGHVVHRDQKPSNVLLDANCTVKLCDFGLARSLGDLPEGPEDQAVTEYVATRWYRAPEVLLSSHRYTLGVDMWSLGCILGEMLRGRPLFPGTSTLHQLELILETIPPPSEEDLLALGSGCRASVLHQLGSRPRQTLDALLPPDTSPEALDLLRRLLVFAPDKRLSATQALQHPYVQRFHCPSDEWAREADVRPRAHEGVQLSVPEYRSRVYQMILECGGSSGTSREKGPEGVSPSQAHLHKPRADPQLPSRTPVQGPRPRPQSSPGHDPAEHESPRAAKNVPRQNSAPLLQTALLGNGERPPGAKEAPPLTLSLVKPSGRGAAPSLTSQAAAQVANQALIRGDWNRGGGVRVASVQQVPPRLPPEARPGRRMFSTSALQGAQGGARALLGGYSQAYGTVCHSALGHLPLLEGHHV

[21] = molecular target: Tyrosine-protein kinase Fyn (Homo sapiens) (UniProt P06241); conditions: Compound concentration 1000.0 nM
[22] = molecular target: Glycogen synthase kinase-3 beta (Homo sapiens) (UniProt P49841); conditions: Compound concentration 1000.0 nM
[23] = test system: Epidermal growth factor receptor (Homo sapiens), P00533 [L858R,T790M]; conditions: Compound concentration 1000.0 nM
[24] = molecular target: Testis-specific serine/threonine-protein kinase 3 (Homo sapiens) (UniProt Q96PN8); conditions: Compound concentration 1000.0 nM
[25] = test system: Epidermal growth factor receptor (Homo sapiens), P00533 [UNDEFINED MUTATION]; conditions: Compound concentration 1000.0 nM
[26] = molecular target: Serine/threonine-protein kinase MARK2 (Homo sapiens) (UniProt Q7KZI7); conditions: Compound concentration 1000.0 nM
[27] = molecular target: Cyclin-dependent kinase 4 (Homo sapiens) (UniProt P11802); conditions: Compound concentration 1000.0 nM
Sequence of Cyclin-dependent kinase 4 (Homo sapiens) (P11802 whole entry): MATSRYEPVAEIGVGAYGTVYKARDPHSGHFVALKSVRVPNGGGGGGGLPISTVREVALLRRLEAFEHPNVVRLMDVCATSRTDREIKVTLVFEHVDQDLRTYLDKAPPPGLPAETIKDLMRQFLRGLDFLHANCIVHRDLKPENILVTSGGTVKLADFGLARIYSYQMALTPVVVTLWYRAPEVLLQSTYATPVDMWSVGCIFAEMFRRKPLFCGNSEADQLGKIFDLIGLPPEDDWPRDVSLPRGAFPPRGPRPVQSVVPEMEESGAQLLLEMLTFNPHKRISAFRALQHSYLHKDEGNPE

[28] = molecular target: Death-associated protein kinase 3 (Homo sapiens) (UniProt O43293); conditions: Compound concentration 1000.0 nM
[29] = molecular target: Serine/threonine-protein kinase MRCK beta (Homo sapiens) (UniProt Q9Y5S2); conditions: Compound concentration 1000.0 nM
[30] = test system: ALK tyrosine kinase receptor (Homo sapiens), Q9UM73 [L1196M]; conditions: Compound concentration 1000.0 nM
[31] = test system: Mast/stem cell growth factor receptor Kit (Homo sapiens), P10721 [D816H]; conditions: Compound concentration 1000.0 nM
[32] = molecular target: Serine/threonine-protein kinase PLK3 (Homo sapiens) (UniProt Q9H4B4); conditions: Compound concentration 1000.0 nM
[33] = test system: Receptor-type tyrosine-protein kinase FLT3 (Homo sapiens), P36888 [D835Y]; conditions: Compound concentration 1000.0 nM
[34] = molecular target: Mitogen-activated protein kinase kinase kinase 12 (Homo sapiens) (UniProt Q12852); conditions: Compound concentration 1000.0 nM
[35] = molecular target: 5-hydroxytryptamine receptor 1E (Homo sapiens) (UniProt P28566); conditions: Compound concentration 10.0 uM
Sequence of 5-hydroxytryptamine receptor 1E (Homo sapiens) (P28566 whole entry): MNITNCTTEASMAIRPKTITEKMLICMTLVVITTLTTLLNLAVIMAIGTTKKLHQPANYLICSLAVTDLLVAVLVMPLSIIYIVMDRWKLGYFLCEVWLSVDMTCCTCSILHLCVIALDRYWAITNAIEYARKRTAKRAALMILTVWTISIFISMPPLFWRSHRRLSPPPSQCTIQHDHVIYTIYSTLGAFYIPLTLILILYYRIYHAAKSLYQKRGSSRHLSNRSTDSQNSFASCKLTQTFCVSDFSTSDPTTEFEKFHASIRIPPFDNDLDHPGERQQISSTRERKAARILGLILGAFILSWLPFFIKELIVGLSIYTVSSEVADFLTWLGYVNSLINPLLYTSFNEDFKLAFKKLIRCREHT

[36] = molecular target: Protein-tyrosine kinase 6 (Homo sapiens) (UniProt Q13882); conditions: Compound concentration 1000.0 nM
Sequence of Protein-tyrosine kinase 6 (Homo sapiens) (Q13882 whole entry, looked up): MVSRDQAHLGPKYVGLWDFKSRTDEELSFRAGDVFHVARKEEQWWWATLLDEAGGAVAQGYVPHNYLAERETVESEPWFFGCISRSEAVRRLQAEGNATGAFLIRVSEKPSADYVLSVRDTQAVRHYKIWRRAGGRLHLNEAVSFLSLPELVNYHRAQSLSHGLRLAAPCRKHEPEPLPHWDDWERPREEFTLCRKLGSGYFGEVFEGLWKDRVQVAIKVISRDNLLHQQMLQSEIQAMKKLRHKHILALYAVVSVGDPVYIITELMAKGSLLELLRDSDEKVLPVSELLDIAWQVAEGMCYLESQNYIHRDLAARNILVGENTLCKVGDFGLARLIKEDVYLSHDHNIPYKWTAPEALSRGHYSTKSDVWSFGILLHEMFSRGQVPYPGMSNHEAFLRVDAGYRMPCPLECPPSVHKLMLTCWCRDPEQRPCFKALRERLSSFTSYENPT

[37] = molecular target: G protein-coupled receptor kinase 4 (Homo sapiens) (UniProt P32298); conditions: Compound concentration 1000.0 nM
[38] = molecular target: BMP-2-inducible protein kinase (Homo sapiens) (UniProt Q9NSY1); conditions: Compound concentration 1000.0 nM
[39] = molecular target: Mitogen-activated protein kinase kinase kinase 9 (Homo sapiens) (UniProt P80192); conditions: Compound concentration 1000.0 nM
[40] = molecular target: Dual specificity protein kinase CLK1 (Homo sapiens) (UniProt P49759); conditions: Compound concentration 1000.0 nM
[41] = molecular target: Cyclin-dependent kinase 11B (Homo sapiens) (UniProt P21127); conditions: Compound concentration 1000.0 nM
[42] = molecular target: Serine/threonine-protein kinase Nek3 (Homo sapiens) (UniProt P51956); conditions: Compound concentration 1000.0 nM
[43] = molecular target: Cyclin-dependent kinase 7 (Homo sapiens) (UniProt P50613); conditions: Compound concentration 1000.0 nM
Sequence of Cyclin-dependent kinase 7 (Homo sapiens) (P50613 whole entry): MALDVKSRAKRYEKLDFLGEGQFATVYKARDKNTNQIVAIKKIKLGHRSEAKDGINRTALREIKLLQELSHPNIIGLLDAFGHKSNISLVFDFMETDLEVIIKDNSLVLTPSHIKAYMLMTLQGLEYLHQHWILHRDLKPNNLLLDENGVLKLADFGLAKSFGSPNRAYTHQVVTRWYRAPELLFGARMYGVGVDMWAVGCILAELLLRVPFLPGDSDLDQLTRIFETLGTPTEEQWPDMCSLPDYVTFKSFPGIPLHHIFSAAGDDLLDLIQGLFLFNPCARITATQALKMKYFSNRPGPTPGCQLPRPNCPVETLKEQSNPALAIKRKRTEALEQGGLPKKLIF

[44] = molecular target: Interferon-induced, double-stranded RNA-activated protein kinase (Homo sapiens) (UniProt P19525); conditions: Compound concentration 1000.0 nM
[45] = test system: Tyrosine-protein kinase ABL1 (Homo sapiens), P00519 [H396P]; conditions: Compound concentration 1000.0 nM

Sequence of 5'-AMP-activated protein kinase catalytic subunit alpha-1 (Homo sapiens) (Q13131 whole entry, looked up): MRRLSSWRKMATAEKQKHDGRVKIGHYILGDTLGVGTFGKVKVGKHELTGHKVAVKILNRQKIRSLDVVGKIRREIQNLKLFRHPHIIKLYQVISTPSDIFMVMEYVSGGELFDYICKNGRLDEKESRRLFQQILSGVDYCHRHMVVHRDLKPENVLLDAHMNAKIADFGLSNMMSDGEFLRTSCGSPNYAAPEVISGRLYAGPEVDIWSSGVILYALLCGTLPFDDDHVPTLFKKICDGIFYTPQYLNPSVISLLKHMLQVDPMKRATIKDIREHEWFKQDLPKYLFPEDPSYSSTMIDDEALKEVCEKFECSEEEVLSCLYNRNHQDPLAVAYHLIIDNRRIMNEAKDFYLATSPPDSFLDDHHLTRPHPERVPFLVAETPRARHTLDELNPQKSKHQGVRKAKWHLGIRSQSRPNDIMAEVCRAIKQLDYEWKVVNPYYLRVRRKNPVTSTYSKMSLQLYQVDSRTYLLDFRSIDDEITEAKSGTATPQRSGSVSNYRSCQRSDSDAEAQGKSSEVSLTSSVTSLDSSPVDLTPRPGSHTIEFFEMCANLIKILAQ

Structure (SMILES): O=S(=O)(NC1CCC(c2cc(F)ccc2F)(S(=O)(=O)c2ccc(Cl)cc2)CC1)C(F)(F)F (stereo not given) [MRK-560]
- residual activity [1]: 100%
- residual activity [2]: 100%
- residual activity [3]: 100%
- residual activity [4]: 86%
- residual activity [5]: 100%
- residual activity [6]: 85%
- residual activity [7]: 100%
- residual activity [8]: 94%
- residual activity [9]: 100%
- residual activity [10]: 100%
- residual activity [11]: 100%
- residual activity [12]: 75%
- residual activity [13]: 85%
- residual activity [14]: 83%
- residual activity [15]: 90%
- residual activity [16]: 100%
- residual activity [17]: 100%
- residual activity [18]: 100%
- residual activity [19]: 100%
- residual activity [20]: 94%
- residual activity [21]: 85%
- residual activity [22]: 100%
- residual activity [23]: 89%
- residual activity [24]: 88%
- residual activity [25]: 0%
- residual activity [26]: 100%
- residual activity [27]: 100%
- residual activity [28]: 97%
- residual activity [29]: 100%
- residual activity [30]: 94%
- residual activity [31]: 71%
- residual activity [32]: 97%
- residual activity [33]: 98%
- residual activity [34]: 100%
- inhibition [35]: -8.31%
- residual activity [36]: 95%
- residual activity [37]: 100%
- residual activity [38]: 92%
- residual activity [39]: 98%
- residual activity [40]: 78%
- residual activity [41]: 82%
- residual activity [42]: 81%
- residual activity [43]: 100%
- residual activity [44]: 87%
- residual activity [45]: 100%
